Source: patent publication US10632147B2, “Methods and compositions for treating inflammatory disorders” (priority 2007, dated 2020)

Conditions: in vivo

SMILES: NCc1ccc(S(N)(=O)=O)cc1 [Sulfamylon]
- safety profile (adverse effects): absence of adverse effects
